Data from US9598365B2, “Method for synthesizing cycloalkanyl[b]indoles, cycloalkanyl[b]benzofurans, cycloalkanyl[b]benzothiophenes, compounds and methods of use” (Trustees of Dartmouth College, priority 2012, dated 2017).

Columns and labels:
[1] = system: Insulin Secretion; test: Insulin secretion, Secretion Hi Gluc; format: cell-based
Excerpt: (§1) Selected compounds of this invention were screened for K-Ras Wnt synthetic lethal, anti-angiogenic activity, Wnt pathway modulatory activity, insulin and GLP-1 secretion modulatory activity, GPR119 receptor agonist activity, mGlu2R antagonist activity, CGRP receptor antagonist activity, Apelin receptor agonist activity and hexokinase 2 inhibitory activity using the PD^2 and TD^2 Screening Panel (Eli Lilly & Company). See Lee, et al. (2011) J. Biomol. Screen. 16:588-602.

[2] = biological target: hCGRP1 (Homo sapiens, UniProt O60894+Q16602); test: CGRP receptor antagonist, hCGRP1 antagonism; format: cell-based
Chain of hCGRP1 (Q16602 23-461): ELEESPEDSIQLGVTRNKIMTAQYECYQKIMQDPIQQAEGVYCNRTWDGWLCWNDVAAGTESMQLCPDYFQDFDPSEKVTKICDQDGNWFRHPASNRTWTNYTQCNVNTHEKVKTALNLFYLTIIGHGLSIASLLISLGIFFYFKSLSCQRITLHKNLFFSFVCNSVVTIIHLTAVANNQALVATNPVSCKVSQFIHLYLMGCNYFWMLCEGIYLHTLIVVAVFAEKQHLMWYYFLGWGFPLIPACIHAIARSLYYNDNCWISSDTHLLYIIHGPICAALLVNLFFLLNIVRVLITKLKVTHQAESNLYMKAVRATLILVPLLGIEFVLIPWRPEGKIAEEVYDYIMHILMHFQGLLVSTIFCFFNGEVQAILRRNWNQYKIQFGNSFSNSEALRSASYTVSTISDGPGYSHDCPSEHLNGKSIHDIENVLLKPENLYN
Chain of hCGRP1 (O60894 27-148 partner): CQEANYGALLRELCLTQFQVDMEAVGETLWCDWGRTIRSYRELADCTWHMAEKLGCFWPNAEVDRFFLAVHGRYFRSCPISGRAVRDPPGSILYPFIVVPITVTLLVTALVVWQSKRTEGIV
Excerpt: as §1

[3] = system: hNCI-H716; test: hNCI basal LDH secretion; format: cell-based; settings: read-out: Primary CRC (EC50, μM) hNCI Basal
Description: In light of the above results, additional compounds (Table 7) were prepared and phenotypic assays were carried out using hNCI-H716 and mSTC-1 cell lines to monitor GLP-1 secretion (single point (SP) and concentration response curves (CRC)) (Table 8), as well as a secondary assay with pituitary cells (Table 9).

[4] = Plasma compound exposure after oral dosing in mice; format: in vivo, Mice (male C57BL/6); settings: male, C57BL/6, mouse, plasma, oral 100 mg/kg, 30 minutes post-dose, read-out: mean (±standard deviation) plasma levels
Description: (§2) Mice (male C57BL/6, 8-10 weeks of age) were fasted overnight by being placed in a clean cage without food. The next day, all mice were weighed and assigned to groups of similar body weights. Test compounds were formulated in 1% HEC, 0.25% TWEEN 80, 0.05% antifoam (vehicle control). Compounds 11ls and llu were orally dosed (100 mg/kg) and cardiac sticks were done on CO2 euthanized mice at 30 minutes post-dose. Blood (500+μL whole blood) from the cardiac stick was placed in chilled EDTA-plasma tubes with inhibitors, DPP4 inhibitor (5 μL/500 μL blood) and aprotinin (bovine lung, […]/500 μL blood), and stored on ice. Plasma was separated by centrifugation and aliquoted for compound exposure to total GIP and GLP-1 (X-36 amide). Plates for compound exposure were analyzed for absorption, distribution, metabolism, and excretion, while conventional kits were used for GLP-1 (x-36) amide (Mesoscale) and GIP (Millipore) analyses.

[5] = system: GLP-1 (X-36 amide); test: Plasma GLP-1 response to oral compound in mice; format: in vivo, Mice (male C57BL/6); settings: oral 100 mg/kg, plasma 30 minutes post-dose
Description: as §2

[6] = system: GIP; test: Plasma GIP response to oral compound in mice; format: in vivo, Mice (male C57BL/6); settings: oral 100 mg/kg, plasma 30 minutes post-dose
Description: as §2

- inhibition at 30 µM [2]: 77.1%
- EC50 [3]: > 40 µM
- concentration at 30 min [4]: 412 ± 88.2 ng/mL
Structure (SMILES): CC1(C)c2c([nH]c3ccc(Cl)cc23)C2C=CC1C2 (stereo not shown) [Compound 11s]
- Secretion Hi Gluc % Stimulation ([1]; @ 2 μM): −1.2%
- Secretion Hi Gluc % Stimulation ([1]; @ 10 μM): 15.8%
- Avg. GLP-1 (pg/mL) ±SEM [5]: 5.52 ± 1.18 pg/mL
- Avg. GIP (pg/mL) ±SEM [6]: 23.42 ± 7.44 pg/mL
